This is an account of results in patent US20260103453A1, “NOVEL PYRIMIDINE DERIVATIVE AS BRUTON'S TYROSINE KINASE INHIBITOR” (HANMI PHARM. CO., LTD., priority 2022, published 2026).

In the assay the target is BTK enzyme (Homo sapiens, UniProt Q06187). Put plainly: Z'-LYTE kinase assay, BTK enzyme activity inhibition (ThermoFisher SelectScreen). In kind it is biochemical. Particulars: 60 minutes reaction at room temperature, compound 1,000 nM to 0.32 nM. The method, then: To do this, the SelectScreen profiling service was requested to the ThermoFisher company to proceed the Z′-LYTE kinase assay. The simple test method can be summarized as follows.
Chain of BTK enzyme (Q06187 whole entry): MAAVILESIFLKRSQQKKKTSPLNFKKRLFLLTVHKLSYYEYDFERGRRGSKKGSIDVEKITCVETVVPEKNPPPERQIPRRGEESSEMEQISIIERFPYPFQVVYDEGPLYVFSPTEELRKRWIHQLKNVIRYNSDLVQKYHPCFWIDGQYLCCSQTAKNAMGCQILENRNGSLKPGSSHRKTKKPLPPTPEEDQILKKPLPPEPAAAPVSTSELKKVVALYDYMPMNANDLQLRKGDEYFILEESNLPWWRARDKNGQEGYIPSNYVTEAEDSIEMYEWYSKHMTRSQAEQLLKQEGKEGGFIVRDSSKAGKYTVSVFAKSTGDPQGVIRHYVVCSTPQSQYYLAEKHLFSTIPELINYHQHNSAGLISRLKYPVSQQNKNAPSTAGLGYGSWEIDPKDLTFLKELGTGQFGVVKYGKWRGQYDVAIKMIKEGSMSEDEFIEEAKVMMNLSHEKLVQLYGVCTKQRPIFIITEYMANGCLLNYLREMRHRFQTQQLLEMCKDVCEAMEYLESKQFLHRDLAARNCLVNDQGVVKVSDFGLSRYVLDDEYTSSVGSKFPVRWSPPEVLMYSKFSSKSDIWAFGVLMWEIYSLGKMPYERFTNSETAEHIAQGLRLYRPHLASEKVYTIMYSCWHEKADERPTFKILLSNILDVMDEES
The compounds prepared in Examples above were each dissolved in DMSO to prepare a 10 mM solution, which was then delivered to the ThermoFisher Scientific company. According to the protocol provided by the ThermoFisher Scientific company, the solution of each compound was diluted in 100% DMSO to a have a concentration of 1,000 nM to 0.32 nM (dilution factor of 1/5). Next, the BTK enzyme was diluted in a kinase buffer (50 mM HEPES (PH 7.5), 10 mM MgCl2, 1 mM EGTA, 0.01% BRIJ-35) to a concentration of up to 10 ng/assay. The test was performed in a low volume 384-well plate (low volume NBS, black 384-well plate). First, 100 nL of the diluted compound solution was added to a sample, and then 2.4 μL of buffer, 5 μL of mixed solution of peptide substrate and kinase at twice (2×) the concentration listed in the protocol, and 2.5 μL of 140 μm ATP solution were added thereto, followed by stirring for 30 seconds. Then, it was allowed for a reaction at room temperature for 60 minutes. Afterwards, 5 μL of a color developing solution was added thereto and stirred for 30 seconds, and fluorescence of the peptide substrate was reacted for 60 minutes. After completion of the reaction, each fluorescence value (400 nm excitation filter, 445/520 nm emission filter) was measured by using a fluorescence plate reader.
By IC50 is commonly meant the point on the concentration scale where inhibition reaches its midpoint. In the case of `C=CC(=O)N(C)CC#Cc1c(N)ncnc1-c1cc(F)cc(NC(=O)c2ccc(C(C)C)cc2F)c1C` [Example 1], the IC50 amounted to 1.7 nM.
In the case of `C=CC(=O)N(C)CC#Cc1c(N)ncnc1-c1cc(F)cc(NC(=O)c2ccc(C3CC3)cc2F)c1C` [Example 2] it was 1.5 nM.
Compound `C=CC(=O)N(C)CC#Cc1c(N)ncnc1-c1cc(F)cc(N2CCc3cc(C4CC4)cc(F)c3C2=O)c1` [Example 3, N-(3-(4-amino-6-(3-(6-cyclopropyl-8-fluoro-1-oxo-3,4-dihydroisoquinolin-2(1H)-yl)-5-fluorophenyl)pyrimidin-5-yl)prop-2-yn-1-yl)-N-methylacrylamide] had an IC50 of 3.8 nM.
On to `C=CC(=O)N(C)CC#Cc1c(N)ncnc1-c1cc(F)cc(N2CCc3cc(C4CC4)cc(F)c3C2=O)c1C` [Example 4, N-(3-(4-amino-6-(3-(6-cyclopropyl-8-fluoro-1-oxo-3,4-dihydroisoquinolin-2(1H)-yl)-5-fluoro-2-methylphenyl)pyrimidin-5-yl)prop-2-yn-1-yl)-N-methylacrylamide], for which the IC50 was found to be 5.3 nM.
In the case of `C=CC(=O)N(C)CC#Cc1c(N)ncnc1-c1cc(F)cc(-n2ccc3cc(C4CC4)cc(F)c3c2=O)c1` [Example 5, N-(3-(4-amino-6-(3-(6-cyclo-8-fluoro-1-oxoisoquinolin-2(1H)-yl)-5-fluorophenyl)pyrimidin-5-yl)prop-2-yn-1-yl)-N-methylacrylamide] it was 6 nM.
For `C=CC(=O)N(C)CC#Cc1c(N)ncnc1-c1cc(F)cc(-n2ccc3cc(C4CC4)cc(F)c3c2=O)c1C` [Example 6, N-(3-(4-amino-6-(3-(6-cyclopropyl-8-fluoro-1-oxoisoquinolin-2(1H)-yl)-5-fluoro-2-methylphenyl)pyrimidin-5-yl)prop-2-yn-1-yl)-N-methylacrylamide], half-maximal inhibition (IC50) was put at 3 nM.
In the case of `C=CC(=O)N(C)CC#Cc1c(N)ncnc1-c1cc(F)cc(-n2ccc3cc(C4CC4)cc(F)c3c2=O)c1F` [Example 7, N-(3-(4-amino-6-(3-(6-cyclopropyl-8-fluoro-1-oxoisoquinolin-2(1H)-yl)-2,5-difluorophenyl)pyrimidin-5-yl)prop-2-yn-1-yl)-N-methylacrylamide] it was 20 nM; in that of `C=CC(=O)N(C)CC#Cc1c(N)ncnc1-c1cc(C)cc(-n2ccc3cc(C4CC4)cc(F)c3c2=O)c1C` [Example 8, N-(3-(4-amino-6-(3-(6-cyclopropyl-8-fluoro-1-oxoisoquinolin-2(1H)-yl)-2,5-dimethylphenyl)pyrimidin-5-yl)prop-2-yn-1-yl)-N-methylacrylamide], 3.4 nM.
In turn, `C=CC(=O)NCC#Cc1c(N)ncnc1-c1cc(F)cc(-n2ccc3cc(C4CC4)cc(F)c3c2=O)c1C` [Example 9, N-(3-(4-amino-6-(3-(6-cyclopropyl-8-fluoro-1-oxoisoquinolin-2(1H)-yl)-5-fluoro-2-methylphenyl)pyrimidin-5-yl)prop-2-yn-1-yl)acrylamide] registered an IC50 of 34 nM.
In turn, `C=CC(=O)N(C)CC#Cc1c(N)ncnc1-c1cc(F)cc(-n2ncc3cc(C(C)(C)C)cc(F)c3c2=O)c1` [Example 10, N-(3-(4-amino-6-(3-(6-(tert-butyl)-8-fluoro-1-oxophthalazin-2-(1H)-yl)-5-fluorophenyl)pyrimidin-5-yl)prop-2-yn-1-yl)-N-methylacrylamide] had an IC50 of 2.3 nM.
`C=CC(=O)N(C)CC#Cc1c(N)ncnc1-c1cc(F)cc(-n2ncc3cc(C4CC4)ccc3c2=O)c1C` [Example 11, N-(3-(4-amino-6-(3-(6-cyclopropyl-1-oxophthalazin-2(1H)-yl)-5-fluoro-2-methylphenyl)pyrimidin-5-yl)prop-2-yn-1-yl)-N-methylacrylamide] displayed an IC50 of 10 nM.
On to `C=CC(=O)N(C)CC#Cc1c(N)ncnc1-c1cc(F)cc(-n2ncc3cc(C4CC4)cc(F)c3c2=O)c1C` [Example 12, N-(3-(4-amino-6-(3-(6-cyclopropyl-8-fluoro-1-oxophthalazin-2(1H)-yl)-5-fluoro-2-methylphenyl)pyrimidin-6-yl)prop-2-yn-1-yl)-N-methylacrylamide], for which the IC50 came out at 4.9 nM.
`C=CC(=O)N(C)CC#Cc1c(N)ncnc1-c1cc(F)cc(-n2ncc3cc(C(C)(C)C)cc(F)c3c2=O)c1C` [Example 13] registered an IC50 of 44 nM.
`C=CC(=O)N(C)CC#Cc1c(N)ncnc1-c1cc(F)cc(-n2ncc3cc(C(C)(C)C)ccc3c2=O)c1` [Example 14]: the IC50 came out at 24 nM.
With `C=CC(=O)N(C)CC#Cc1c(N)ncnc1-c1cc(F)cc(-n2cnc3cc(C4CC4)cc(F)c3c2=O)c1` [Example 15, N-(3-(4-amino-6-(3-(7-cyclopropyl-5-fluoro-4-oxoquinazolin-3(4H)-yl)-5-fluorophenyl)pyrimidin-5-yl)prop-2-yn-1-yl)-N-methylacrylamide], half-maximal inhibition (IC50) required 34 nM.
In turn, `C=CC(=O)N1CCC[C@@H]1C#Cc1c(N)ncnc1-c1cc(F)cc(-n2ccc3cc(C4CC4)cc(F)c3c2=O)c1C` [Example 16, (R)-2-(3-(5-((1-acryloylpyrrolidin-2-yl)ethynyl)-6-aminopyrimidin-4-yl)-5-fluoro-2-methylphenyl)-6-cyclopropyl-8-fluoroisoquinolin-1-(2H)-one] came in with an IC50 of 29 nM.
`C=CC(=O)N1CCC[C@H]1C#Cc1c(N)ncnc1-c1cc(F)cc(-n2ccc3cc(C4CC4)cc(F)c3c2=O)c1C` [Example 17, (S)-2-(3-(5-((1-acryloylpyrrolidin-2-yl)ethynyl)-6-aminopyrimidin-4-yl)-6-fluoro-2-methylphenyl)-6-cyclopropyl-8-fluoroisoquinolin-1-(2H)-one] registered an IC50 of 4.1 nM.
Compound `C=CC(=O)N1CCC[C@H]1C#Cc1c(N)ncnc1-c1cc(F)cc(-n2ccc3cc(C(C)C)cc(F)c3c2=O)c1C` [Example 18, (S)-2-(3-(5-((1-acryloylpyrrolidin-2-yl)ethynyl)-6-aminopyrimidin-4-yl)-6-fluoro-2-methylphenyl)-8-fluoro-6-isoquinolin-1-(2H)-one] displayed a concentration for half-maximal inhibition (IC50) of 9.7 nM.
In the case of `C=C(F)C(=O)N1CCC[C@H]1C#Cc1c(N)ncnc1-c1cc(F)cc(-n2ccc3cc(C4CC4)cc(F)c3c2=O)c1C` [Example 19, (S)-2-(3-(6-amino-5-((1-(2-fluoroacryloyl)pyrrolidin-2-yl)ethynyl)pyrimidin-4-yl)-5-fluoro-2-methylphenyl)-6-cyclopropyl-8-fluoroisoquinolin-1(2H)-one], the IC50 was found to be 201 nM.
For `C=C(Cl)C(=O)N1CCC[C@H]1C#Cc1c(N)ncnc1-c1cc(F)cc(-n2ccc3cc(C4CC4)cc(F)c3c2=O)c1C` [Example 20, (S)-2-(3-(6-amino-5-((1-(2-chloroacryloyl)pyrrolidin-2-yl)ethynyl)pyrimidin-4-yl)-5-fluoro-2-methylphenyl)-6-cyclopropyl-8-fluoroisoquinolin-1(2H)-one], the IC50 is 16 nM.
Turning to `C=CC(=O)N1CCCCC1C#Cc1c(N)ncnc1-c1cc(F)cc(-n2ccc3cc(C4CC4)cc(F)c3c2=O)c1C` (stereo not shown) [Example 22, 2-(3-(5-((1-acryloylpiperidin-2-yl)ethynyl)-6-aminopyrimidin-4-yl)-5-fluoro-2-methylphenyl)-6-cyclopropyl-8-isoquinolin-1(2H)-one], inhibition was half-maximal at 5.7 nM (IC50).
In the case of `C=CC(=O)N1CCCC[C@H]1C#Cc1c(N)ncnc1-c1cc(F)cc(-n2ccc3cc(C4CC4)cc(F)c3c2=O)c1C` [Example 23] it was 8.7 nM.
